Reference: the supplement of paper PMC13380429

Key:
Details in all cases: 72 h
U2OS [1] = test: cell viability relative to DMSO; higher = less toxic
Caco-2 [2] = test: as above
Vero E6 [3] = test: as above
HepG2 [4] = test: as above
Calu-3 [5] = test: as above
U2OS [6] = test: drug sensitivity score (DSS) for viability; higher = more toxic; extreme values may be limits of the assay
Caco-2 [7] = test: as above
Vero E6 [8] = test: as above
HepG2 [9] = test: as above
Calu-3 [10] = test: as above
U2OS [11] = test: relative viability EC50 (midpoint between 100% and the lowest measured viability); higher = less toxic
Caco-2 [12] = test: as above
Vero E6 [13] = test: as above
HepG2 [14] = test: as above
Calu-3 [15] = test: as above

Row | Compound | cell viability (U2OS [1]; 1 nM) [%] | cell viability (U2OS [1]; 10 nM) [%] | cell viability (U2OS [1]; 100 nM) [%] | cell viability (U2OS [1]; 1000 nM) [%] | cell viability (U2OS [1]; 10000 nM) [%] | cell viability (Caco-2 [2]; 1 nM) [%] | cell viability (Caco-2 [2]; 10 nM) [%] | cell viability (Caco-2 [2]; 100 nM) [%] | cell viability (Caco-2 [2]; 1000 nM) [%] | cell viability (Caco-2 [2]; 10000 nM) [%] | cell viability (Vero E6 [3]; 1 nM) [%] | cell viability (Vero E6 [3]; 10 nM) [%] | cell viability (Vero E6 [3]; 100 nM) [%] | cell viability (Vero E6 [3]; 1000 nM) [%] | cell viability (Vero E6 [3]; 10000 nM) [%] | cell viability (HepG2 [4]; 1 nM) [%] | cell viability (HepG2 [4]; 10 nM) [%] | cell viability (HepG2 [4]; 100 nM) [%] | cell viability (HepG2 [4]; 1000 nM) [%] | cell viability (HepG2 [4]; 10000 nM) [%] | cell viability (Calu-3 [5]; 1 nM) [%] | cell viability (Calu-3 [5]; 10 nM) [%] | cell viability (Calu-3 [5]; 100 nM) [%] | cell viability (Calu-3 [5]; 1000 nM) [%] | cell viability (Calu-3 [5]; 10000 nM) [%] | drug sensitivity score (U2OS [6]) | drug sensitivity score (Caco-2 [7]) | drug sensitivity score (Vero E6 [8]) | drug sensitivity score (HepG2 [9]) | drug sensitivity score (Calu-3 [10]) | relative viability EC50 (U2OS [11]) [µM] | relative viability EC50 (Caco-2 [12]) [µM] | relative viability EC50 (Vero E6 [13]) [µM] | relative viability EC50 (HepG2 [14]) [µM] | relative viability EC50 (Calu-3 [15]) [µM]
1 | CC(=O)NC[C@H]1CN(c2ccc(-c3ccc(CNCc4cnn[nH]4)cc3)c(F)c2)C(=O)O1 [radezolid] | 98.9 | 98.8 | 99.7 | 96.4 | 94.2 | 96.8 | 106 | 104 | 118 | 87.8 | 100 | 96.2 | 99.3 | 93.8 | 93.6 | 105 | 106 | 108 | 54.4 | 49.2 | 104 | 97.6 | 97.4 | 90.6 | 101 | 0 | 0 | 0 | 8.1 | 0 | > 10 | > 10 | > 10 | 0.472 | > 10
2 | CN(CC[C@@H](Oc1ccc(-c2ccccc2)cc1)c1ccc(F)cc1)CC(=O)O [ALX-5407] | 98.3 | 96.6 | 99 | 93.8 | 98.7 | 105 | 98.9 | 102 | 94.8 | 95.6 | 101 | 99.1 | 97.7 | 100 | 96.4 | 102 | 108 | 92.7 | 95.7 | 96.7 | 103 | 85.9 | 98.6 | 98.3 | 104 | 0 | 0 | 0 | 0 | 0 | > 10 | > 10 | > 10 | > 10 | > 10
3 | O=C1CCCN1CC#CCN1CCCC1 [oxotremorine-sesquifumarate] | 97 | 94.3 | 95.3 | 100 | 102 | 110 | 99.1 | 94.7 | 103 | 98.3 | 105 | 105 | 104 | 93.8 | 92.8 | 101 | 96 | 104 | 94.9 | 82.6 | 96 | 96 | 91.9 | 105 | 101 | 0 | 0 | 0 | 0.9 | 0 | > 10 | > 10 | > 10 | > 10 | > 10
4 | CC(C)Cc1ccc([C@@H](C)C(=O)NCCO)cc1 (racemic) [mabuprofen] | 105 | 98.9 | 103 | 100 | 100 | 102 | 96.4 | 104 | 94 | 96.1 | 102 | 100 | 101 | 97.9 | 94.7 | 92.7 | 105 | 90.8 | 95.3 | 96.4 | 106 | 103 | 105 | 99.4 | 117 | 0 | 0 | 0 | 0 | 0 | > 10 | > 10 | > 10 | > 10 | > 10
5 | CCCn1cnc2c1c(=O)n(CCCCC(C)=O)c(=O)n2C [propentofylline] | 98.4 | 98.6 | 101 | 101 | 101 | 91.1 | 97.5 | 91.5 | 102 | 106 | 92.4 | 92.4 | 92.1 | 93.3 | 106 | 98.6 | 106 | 103 | 96.4 | 104 | 107 | 90.8 | 99 | 94.8 | 108 | 0 | 0 | 0 | 0 | 0 | > 10 | > 10 | > 10 | > 10 | > 10
6 | O=C(O[C@H]1CN2CCC1CC2)N(Cc1cc(F)c(F)c(F)c1)c1cccc(F)c1 [tarafenacin] | 95.7 | 102 | 100 | 103 | 91.3 | 102 | 96.5 | 91.3 | 104 | 95.7 | 99.7 | 99.6 | 107 | 98.7 | 90.2 | 115 | 106 | 108 | 96.5 | 99.3 | 96.4 | 106 | 106 | 113 | 96.2 | 0 | 0 | 0 | 0 | 0 | > 10 | > 10 | > 10 | > 10 | > 10
